Test results reported in patent US20250313563A1, “GLYCOGEN SYNTHASE KINASE 3 INHIBITORS AND USES THEREOF” (The Broad Institute, Inc., priority 2022, published 2025).
Like-named read-outs stand apart in the source and are kept apart here.

How the values were obtained:
[1] = target: GSK3α (GST-full length GSK3α) (Homo sapiens (Human), UniProt P49840); assay: GSK3α TR-FRET kinase assay; type: biochemical
Outline: (§1)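 Compound was preincubated 30 min with 1 nM GST-GSK3 enzyme. Reaction ran 100 min at ambient temperature in Tris pH 7.5/MgCl2 with 200 nM biotinylated pS645-glycogen synthase 631-650 peptide and ATP (4 μM GSK3α, 2 μM GSK3b, or 1 mM). The EDTA-stopped reaction was read by TR-FRET (Tb-anti-pSer641/streptavidin-d2), and IC50s were fitted.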

[2] = target: GSK3b (GST-full length GSK3b) (Homo sapiens (Human), UniProt P49841); assay: GSK3b TR-FRET kinase assay; type: biochemical
GSK3b (GST-full length GSK3b), sequence (P49841 whole entry): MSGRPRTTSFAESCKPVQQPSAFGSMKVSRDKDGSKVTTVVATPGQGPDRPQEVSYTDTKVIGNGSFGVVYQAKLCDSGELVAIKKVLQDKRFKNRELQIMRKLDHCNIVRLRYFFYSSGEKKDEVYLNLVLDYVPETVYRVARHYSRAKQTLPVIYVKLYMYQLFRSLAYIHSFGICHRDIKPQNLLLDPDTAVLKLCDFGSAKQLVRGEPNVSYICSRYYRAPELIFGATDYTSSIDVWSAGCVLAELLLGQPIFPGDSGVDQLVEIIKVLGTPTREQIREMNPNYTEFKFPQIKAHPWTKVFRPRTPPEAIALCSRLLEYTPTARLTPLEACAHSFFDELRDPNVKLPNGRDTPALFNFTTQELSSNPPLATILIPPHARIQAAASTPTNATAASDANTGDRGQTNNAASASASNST
Outline: as §1

[3] = 1 nM GSK3α, 4 μM ATP, 30 minute preincubation, read-out: GSK3-A TR-FRET BIOCHEMICAL (TR-FRET), IC50
[4] = 1 nM GSK3b, 2 μM ATP, 30 minute preincubation, read-out: GSK3-B TR-FRET BIOCHEMICAL (TR-FRET), IC50
[5] = 1 nM GSK3α, 4 μM ATP, 30 minute preincubation, Table 16, read-out: GSK3-A TR-FRET BIOCHEMICAL (TR-FRET), IC50
[6] = read-out: GSK3-A (TR-FRET 1 mM ATP), GMean, IC50, 1 mM ATP, geometric mean
[7] = 1 nM GSK3b, 2 μM ATP, 30 minute preincubation, Table 16, read-out: GSK3-B TR-FRET BIOCHEMICAL (TR-FRET), IC50
[8] = read-out: GSK3-B (TR-FRET 1 mM ATP), GMean, IC50, 1 mM ATP, geometric mean
[9] = 1 nM GSK3α, 4 μM ATP, 30 minute preincubation, Table 16, read-out: GSK3-A TR-FRET BIOCHEMICAL (TR-FRET)
[10] = 1 nM GSK3b, 2 μM ATP, 30 minute preincubation, Table 16, read-out: GSK3-B TR-FRET BIOCHEMICAL (TR-FRET)

GSK3α (GST-full length GSK3α), sequence (P49840 whole entry): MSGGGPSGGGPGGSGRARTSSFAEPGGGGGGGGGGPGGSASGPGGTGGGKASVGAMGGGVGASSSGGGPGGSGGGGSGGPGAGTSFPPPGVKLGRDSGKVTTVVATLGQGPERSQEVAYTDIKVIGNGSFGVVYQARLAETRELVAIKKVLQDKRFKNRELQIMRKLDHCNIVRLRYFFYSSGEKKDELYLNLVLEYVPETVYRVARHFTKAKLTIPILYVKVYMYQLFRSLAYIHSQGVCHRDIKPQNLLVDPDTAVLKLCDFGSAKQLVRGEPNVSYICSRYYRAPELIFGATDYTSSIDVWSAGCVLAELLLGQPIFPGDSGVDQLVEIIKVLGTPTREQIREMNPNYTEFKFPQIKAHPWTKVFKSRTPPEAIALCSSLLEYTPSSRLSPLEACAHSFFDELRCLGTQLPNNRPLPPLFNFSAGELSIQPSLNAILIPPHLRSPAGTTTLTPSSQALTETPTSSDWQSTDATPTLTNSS

| IC50 [1, 5] | IC50 [2, 7] | IC50 [1, 9] | IC50 [2, 10] | Compound | other results |
| --- | --- | --- | --- | --- | --- |
| 100 to 1000 nM | 100 to 1000 nM |  |  | CCC1(c2cccc(-c3ccncc3)c2)C2=C(CC(C)(C)CC2=O)Nc2n[nH]c(C(F)(F)F)c21 (stereo not shown) [Compound 917292] | IC50 [1, 6]: > 5000 nM; IC50 [2, 8]: > 5000 nM |
|  |  | 100 to 1000 nM | 1000 to 5000 nM | CCC1(c2cccc(C(F)(F)F)c2)C2=C(CN(C)C2=O)Nc2n[nH]cc21 (stereo not shown) [Compound 917294] |  |
|  |  | 100 to 1000 nM | 1000 to 5000 nM | CCC1(c2cccc(C(F)(F)F)c2)C2=C(Nc3n[nH]cc31)C(C)NC2=O (stereo not shown) [Compound 917295] |  |
|  |  | > 5000 nM | > 5000 nM | CC[C@@]1(c2cccc(C(F)(F)F)c2)C2=C(Nc3n[nH]cc31)C(C)(C)N(C)C2=O [Compound 918251] |  |
| 100 to 1000 nM | 100 to 1000 nM |  |  | CCC1(c2cccc(N(C)c3ccc(C)nc3)c2)C2=C(CC(C)(C)CC2=O)Nc2n[nH]cc21 (stereo not shown) [Compound 918272] |  |
| ≤ 100 nM | ≤ 100 nM |  |  | CCC1(c2cccc(S(=O)(=O)C3CCCCC3)c2)C2=C(CC(C)(C)CC2=O)Nc2n[nH]cc21 (stereo not shown) [Compound 918273] |  |
| ≤ 100 nM | 100 to 1000 nM |  |  | CCC1(c2cccc(N(C)c3cccc(F)n3)c2)C2=C(CC(C)(C)CC2=O)Nc2n[nH]cc21 (stereo not shown) [Compound 918274] |  |
| ≤ 100 nM | ≤ 100 nM |  |  | CCC1(c2cccc(N3CCOc4ncccc43)c2)C2=C(CC(C)(C)CC2=O)Nc2n[nH]cc21 (stereo not shown) [Compound 918279] |  |
| ≤ 100 nM | ≤ 100 nM |  |  | CCC1(c2cccc(N3CCOc4ccccc43)c2)C2=C(CC(C)(C)CC2=O)Nc2n[nH]cc21 (stereo not shown) [Compound 918280] |  |
| ≤ 100 nM | 100 to 1000 nM |  |  | CCC1(c2cccc(-c3ccnc(C)c3F)c2)C2=C(CC(C)(C)CC2=O)Nc2n[nH]cc21 (stereo not shown) [Compound 918281] |  |

Continued, molecule first:

| Compound | IC50 [1, 5] | IC50 [2, 7] | IC50 [1, 9] | IC50 [2, 10] | other results |
| --- | --- | --- | --- | --- | --- |
| CC[C@@]1(c2cccc(C(F)(F)F)c2)C2=C(CCN(C)C2=O)Nc2n[nH]cc21 [Compound 917282] |  |  |  |  | IC50 [1, 3]: ≤ 100 nM; IC50 [2, 4]: 100 to 1000 nM |
| CC[C@]1(c2cccc(C(F)(F)F)c2)C2=C(CCN(C)C2=O)Nc2n[nH]cc21 [Compound 917283] |  |  |  |  | IC50 [1, 3]: > 5000 nM; IC50 [2, 4]: > 5000 nM |
| CCC1(c2cccc(C(F)(F)F)c2)C2=C(CC(c3ccccc3)NC2=O)Nc2n[nH]cc21 (stereo not shown) [Compound 917284] |  |  |  |  | IC50 [1, 3]: 100 to 1000 nM; IC50 [2, 4]: 1000 to 5000 nM |
| CCC1(c2cccc(-c3ccnc(C)c3)c2)C2=C(CC(C)(C)CC2=O)Nc2n[nH]c(C(F)(F)F)c21 (stereo not shown) [Compound 917289] | 100 to 1000 nM | 1000 to 5000 nM |  |  | IC50 [1, 6]: > 5000 nM; IC50 [2, 8]: > 5000 nM |
| COC(=O)C1CCC2(CC1)C1=C(CC(C)(C)CC1=O)Nc1n[nH]cc12 (stereo not shown) [Compound 918270] |  |  | 100 to 1000 nM | 100 to 1000 nM |  |
| CCC1(c2cccc(S(=O)(=O)CCOC)c2)C2=C(CC(C)(C)CC2=O)Nc2n[nH]cc21 (stereo not shown) [Compound 918271] | ≤ 100 nM | ≤ 100 nM |  |  |  |
| CC1(C)CC(=O)C2=C(C1)Nc1n[nH]cc1C21CN(S(=O)(=O)C2CCCCC2)C1 [Compound 918275] |  |  | ≤ 100 nM | ≤ 100 nM |  |
| COc1cccc(S(=O)(=O)N2CC3(C2)C2=C(CC(C)(C)CC2=O)Nc2n[nH]cc23)c1 [Compound 918276] |  |  | ≤ 100 nM | ≤ 100 nM |  |
| COC(=O)C1CCC2(CC1)C1=C(CC(C)(C)CC1=O)Nc1n[nH]cc12 (stereo not shown) [Compound 918277] |  |  | ≤ 100 nM | 100 to 1000 nM |  |
| CC1(C)CC(=O)C2=C(C1)Nc1n[nH]cc1C21CN(S(=O)(=O)c2cccc(F)c2)C1 [Compound 918278] |  |  | ≤ 100 nM | ≤ 100 nM |  |
| CC1(C)CC2=C(C(=O)[C@H]1F)[C@]1(CC[C@H](C(F)(F)F)CC1)c1c[nH]nc1N2 [Compound 918282] |  |  | ≤ 100 nM | ≤ 100 nM |  |
| CC1(C)CC2=C(C(=O)[C@@H]1F)[C@]1(CC[C@H](C(F)(F)F)CC1)c1c[nH]nc1N2 [Compound 918283] |  |  | ≤ 100 nM | ≤ 100 nM |  |
| CC1(C)CC(=O)C2=C(Nc3n[nH]cc3[C@]23CC[C@@H](C(F)(F)F)CC3)[C@@H]1F [Compound 918284] |  |  | ≤ 100 nM | ≤ 100 nM |  |
| CC1(C)CC(=O)C2=C(Nc3n[nH]cc3[C@]23CC[C@@H](C(F)(F)F)CC3)[C@H]1F [Compound 918285] |  |  | ≤ 100 nM | 100 to 1000 nM | IC50 ([1]; GSK3-A (TR-FRET 1 mM ATP), GMean, IC50, 1 mM ATP, geometric mean): 1000 to 5000 nM; IC50 ([2]; GSK3-B (TR-FRET 1 mM ATP), GMean, IC50, 1 mM ATP, geometric mean): > 5000 nM |
| C[C@@H]1C[C@]2(CCN1S(C)(=O)=O)C1=C(CC(C)(C)CC1=O)Nc1n[nH]cc12 [Compound 918315] |  |  | 100 to 1000 nM | 100 to 1000 nM |  |
| C[C@@H]1C[C@@]2(CCN1S(C)(=O)=O)C1=C(CC(C)(C)CC1=O)Nc1n[nH]cc12 [Compound 918316] |  |  | ≤ 100 nM | 100 to 1000 nM |  |
